Reference: patent US12447159B2 (AELIS FARMA, priority 2018, dated 2025)
Marks after values point to notes of the source that are not given here. One block for each compound: values may come before it.

Experiments:
[1] = Metabolic profiling of [3H]-3pMBP in plasma and excreta in the rat (Radio-HPLC); settings: in vivo
Experimental: The metabolic profile was evaluated in plasma, in urines and feces and the radio-labelled metabolites were identified by their retention time using Radio-HPLC analysis. The results are expressed as % of the sum of all the detected peak areas.

[2] = system: diet-induced obese (DIO) mouse model; test: Repeated treatment: food intake and body weight in diet-induced obese (DIO) mice; assay type: in vivo; settings: for Inhibition of food-intake and body weight (repeated administration): Effect (Rimonabant): 10 mg/kg
Experimental: Male C57BL/6J mice were fed ad libitum with a high-fat diet (HFD) for 8 weeks before the start of the pharmacological treatments. During pharmacological treatments, the HFD was maintained and food intake and body weight were measured daily. The food consumed was calculated by subtracting the food left in the hoppers from the initial pre-weighted amount. […] 3pMBP and rimonabant were administered by oral gavage once a day, two hours before the start of the dark phase of the light/dark cycle.

THC dependent mice = test: Precipitated withdrawal in mice chronically treated with THC; assay type: in vivo; settings: mouse, in vivo
Experimental: The chronic THC regimen (20 mg/kg, twice a day) used in these experiments has been chosen because it mimics heavy marijuana use (Cook et al., 1998) and is considered as a model of cannabinoids dependence in mice (Cutando et al., 2013; Hutcheson et al., 1998). […] From day 1 to 4-5, mice were injected ip with vehicle or THC (20 mg/kg in NaCl 0.9% containing 2% ethanol and 2% Tween80, 10 ml/kg) twice a day. […] All the other animals received the administration of the respective vehicle. […] The dose and schedule of administration of rimonabant chosen for this study has been commonly used to precipitate THC withdrawal in mice (Cook et al. 1998, Hutcheson et al., 1998, Huang et al., 2009).
For the measure of precipitated withdrawal, mice were placed in a novel home cage and a video camera positioned in front of each cage recorded animals' behaviors. Scoring was performed for 1 minute every 5 min-period. Two withdrawal signs were analyzed: paw tremors and head shaking, since they are the most common signs of THC withdrawal observed in mice (Cook et al. 1998, Hutcheson et al., 1998, Lichtman et al., 2001).

[3] = system: anxiety- and depression-related behaviors in mice; test: Repeated administration: anxiety- and depression-related behaviors (elevated plus maze, sucrose preference test); assay type: in vivo; settings: for Increase in anxiety and depression related behaviors (repeated administration): Effect (Rimonabant): 28 days, 10 mg/kg
Experimental: The EPM apparatus was made of four elevated arms arranged in a cross-like disposition, with two opposite arms being enclosed by walls and the two other arms being open. For all the experiments, after receiving the appropriate treatment mice were placed in the center of the EPM and let free to explore the maze for 5 minutes. The time spent and the number of entries into the open arms and closed arms were measured by an automatic videotracking system. A decrease in the percentages of visits and/or of the time spent in open arms is considered an index of increase in anxiety levels.
The sucrose preference test was performed in the home cage of the mice. Two identical bottles, one containing water and the other one containing a 2%-sucrose solution were placed in the hopper of each home cage. […] The volumes of water and of sucrose solutions drank by the mice were measured over two 1.30 h intervals, the first between 7.00 pm and 8.30 pm and the second between 8.30 pm and 10.00 pm. At each time point, the bottles were weighed and the intake volume was calculated by subtracting the initial bottle weight to the final bottle weight.
At day 26, mice were subjected to the EPM and at day 28 to the sucrose preference test.

[4] = system: diet-induced obese (DIO) mouse model; test: Repeated treatment: food intake and body weight in diet-induced obese (DIO) mice; assay type: in vivo; settings: vs vehicle; Rimo 10 mg/kg ip; 3pMBP 0.005-15 mg/kg per os
corticosterone = settings: from Steiner et al., 2008, cited from earlier work
[5] = at doses quite close to the therapeutic dose; cited from earlier work
[6] = system: central benzodiazepine receptor; test: Binding selectivity, ligand displacement; settings: 10 μM
Source text: (§1) The CEREP High-throughput profile consists of a broad collection of 80 transmembrane and soluble receptors, ion channels and G-Protein coupled receptors.

[7] = target: T1, peripheral benzodiazepine receptor (Rattus norvegicus, UniProt P16257); test: Binding selectivity, ligand displacement; settings: 10 μM
T1 construct: CEREP
Source text: as §1

progesterone receptor = target: T2, progesterone receptor (Homo sapiens, UniProt P06401); test: Binding selectivity, ligand displacement; settings: 10 μM
T2 construct: CEREP
Source text: as §1

[8] = male mice, listed as rimonabant
[9] = vs reference ID100 for rimonabant effects = 10 mg/kg
[10] = 28 days once a day, 3pMBP 0.05, 5, 15 mg/kg per os, Rimo 10 mg/kg ip

T2 sequence (P06401 whole entry): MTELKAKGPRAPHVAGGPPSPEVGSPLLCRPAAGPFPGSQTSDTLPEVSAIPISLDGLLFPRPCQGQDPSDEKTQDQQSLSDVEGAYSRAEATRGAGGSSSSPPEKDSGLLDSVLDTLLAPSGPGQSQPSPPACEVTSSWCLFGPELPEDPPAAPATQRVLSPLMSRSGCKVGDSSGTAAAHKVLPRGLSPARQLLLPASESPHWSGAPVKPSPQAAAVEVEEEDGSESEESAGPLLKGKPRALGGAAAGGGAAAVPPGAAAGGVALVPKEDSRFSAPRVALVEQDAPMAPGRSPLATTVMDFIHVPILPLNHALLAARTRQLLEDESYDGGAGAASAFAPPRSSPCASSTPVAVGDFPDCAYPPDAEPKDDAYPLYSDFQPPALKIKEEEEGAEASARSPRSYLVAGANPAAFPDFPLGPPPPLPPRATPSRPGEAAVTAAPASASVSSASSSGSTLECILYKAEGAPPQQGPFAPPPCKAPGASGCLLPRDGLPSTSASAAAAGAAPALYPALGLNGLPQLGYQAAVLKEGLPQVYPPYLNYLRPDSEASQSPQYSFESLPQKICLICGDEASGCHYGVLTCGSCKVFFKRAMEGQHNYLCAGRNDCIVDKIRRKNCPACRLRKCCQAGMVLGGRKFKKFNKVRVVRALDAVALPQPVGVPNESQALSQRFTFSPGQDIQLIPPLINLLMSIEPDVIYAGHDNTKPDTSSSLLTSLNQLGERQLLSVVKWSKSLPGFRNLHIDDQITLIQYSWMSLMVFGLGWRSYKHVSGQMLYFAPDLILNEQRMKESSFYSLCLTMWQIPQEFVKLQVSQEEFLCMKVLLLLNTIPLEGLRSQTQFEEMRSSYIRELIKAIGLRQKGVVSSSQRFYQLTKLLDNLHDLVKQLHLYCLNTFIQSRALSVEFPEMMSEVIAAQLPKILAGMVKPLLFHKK

Structure (SMILES): COc1ccc(CO[C@H]2CC[C@@]3(C)C(=CC[C@H]4[C@@H]5CC[C@H](C(C)=O)[C@@]5(C)CC[C@@H]43)C2)cc1 [[^3H]-3pMBP]
Major metabolites in plasma [1]: does not produce any major metabolites in plasma

IC100 (THC dependent mice): 10 mg/kg | Percentage of time spent in the open arms of the elevated plus maze [3, 10]: decreases the time spent in open arms | Sucrose intake (sucrose preference test) [3, 10]: decreases sucrose intake | IC100 ([3]; Rimonabant, male mice): 10 mg/kg | Increase in anxiety and depression related behaviors (repeated administration): Effect (Rimonabant) ([3]; male mice): Yes | N fold IC100 [3, 9]: 1
Structure (SMILES): Cc1c(C(=O)NN2CCCCC2)nn(-c2ccc(Cl)cc2Cl)c1-c1ccc(Cl)cc1 [Rimonabant, rimonabant]
IC100 ([2]; Rimonabant, male mice): 10 mg/kg | Inhibition of food-intake and body weight (repeated administration): Effect (Rimonabant) ([2]; male mice): Yes | Inhibition of food-intake and body weight (repeated administration): Effect (Rimonabant) [2, 8]: decreased both food intake and body weight | N fold IC100 [2, 9]: 1 | Food intake in obese mice ([2]; vs vehicle, Rimo 10 mg/kg ip, 3pMBP 0.005-15 mg/kg per os): decreases food intake | Percentage of visits in the open arms of the elevated plus maze [3, 10]: decreases the percentage of visits in open arms | Increase in anxiety and depression related behaviors (repeated administration): Effect (Rimonabant) [3, 8]: increased anxiety and depression-related behavior | Body weight in obese mice [4]: decreases body weight | IC100 (corticosterone; Rimonabant): 2 mg/kg | Increase in glucocorticoid secretion: Effect (Rimonabant) (corticosterone; mice): Yes | N fold IC100 (corticosterone; vs reference ID100 for rimonabant = 10 mg/kg): 0.2^# | Adverse events in GLP safety and toxicity studies [5]: clonic convulsion, hepatotoxicity and several profound alterations in behavior

displacement of binding [6]: > 40% | displacement of binding [7]: > 40% | displacement of binding (progesterone receptor): > 80%
Structure (SMILES): CC(=O)[C@H]1CC[C@H]2[C@@H]3CC=C4C[C@@H](O)CC[C@]4(C)[C@H]3CC[C@]12C [pregnenolone]
